Patent US6566512B1, “ARV1, a protein involved in sterol uptake and sterol homeostasis in the budding yeast, S-cerevisiae, and a functional human ARV1” (The Trustees of Columbia University in the City of New York, priority 2000, dated 2003)

Tested on: arv1D cells
Test: Polyene (nystatin) sensitivity of arv1 deletion yeast, growth on plates
Type: cell-based, Saccharomyces cerevisiae
Settings: for polyene sensitivity of yeast strains deleted for the ARV1 gene (arv1Δ): concentration not given
Method: FIGS. 1A-1C arv1 mutant phenotypes. FIG. 1A, Temperature and nystatin sensitivity. 5-fold dilutions of cells were grown as indicated for three days on YEPD +/−5 μg/ml nystatin (10 mg/ml in propylene glycol). FIG. 1B, Characterization of sterol levels. Cells were labeled with [^3H]acetate and lipids extracted and analyzed by TLC. Data from three independent assays of two strains of each genotype is expressed as mean ratio over wild-type (±SEM; statistical significance by paired t-tests, *p<0.05 or **p<0.01 compared to wild-type). Hatched bars wild-type, gray bars=arv1D. FIG. 1C, Subcellular sterol accumulation. Cell membrane preparations were subjected to subcellular fractionation. Lipid composition is presented as ratio of [^3H]acetate in sterol and [^14C]oleate in phospholipids (top panels). Hatched bars=wild-type, gray bars=arv1D. Note scale differences between the upper panels. Fractions were characterized with specific antibodies against the plasma membrane ATPase (Pma1p, provided by Amy Chang), and 100 kDa subunit of integral vacuolar membrane H^+ATPase (Vph1p, Molecular Probes). Bottom panels show densitometry analysis of western blots expressed as percentage of total arbitrary units (Pma1p; closed boxes, Vph1p; open triangles). The integral ER membrane protein, dolichol phosphate mannose synthase cofractionated with Vph1p.
Mutations in sterol trafficking genes may alter membrane sterol levels. arv1D cells are sensitive to nystatin (FIG. 1a), a polyene antibiotic that disrupts membranes in part by interaction with sterols^10. Nystatin partitioning into membranes is sensitive to both sterol organization and levels^10. […] Iodine staining of sterol mass following extraction and thin layer chromatography (TLC) analysis reflected these differences (not shown).

SMILES	polyene sensitivity of yeast strains deleted for the ARV1 gene (arv1Δ)	sensitivity of arv1D cells to nystatin (growth, FIG. 1a) (5-fold dilutions of cells grown three days on YEPD +/- 5 μg/ml nystatin, compared with wild-type)
C[C@@H]1[C@H](O)[C@@H](C)/C=C/C=C/C=C/C=C/C=C/C=C/C=C/[C@H](O[C@@H]2O[C@H](C)[C@@H](O)[C@H](N)[C@@H]2O)C[C@@H]2O[C@](O)(C[C@@H](O)C[C@@H](O)[C@H](O)CC[C@@H](O)C[C@@H](O)CC(=O)O[C@H]1C)C[C@H](O)[C@H]2C(=O)O [amphotericin B]	sensitive	–
CCCCC[C@@H](O)[C@H]1C(=O)O[C@H](C)[C@@H](O)/C=C/C=C/C=C/C=C/C=C(\C)[C@@H](O)C[C@H](O)C[C@H](O)C[C@H](O)C[C@H](O)C[C@H](O)C[C@@H]1O [filipin]	sensitive	–
C[C@@H]1[C@H](O)[C@@H](C)/C=C/C=C/CC/C=C/C=C/C=C/C=C/C(O[C@H]2O[C@H](C)[C@@H](O)[C@H](N)[C@@H]2O)CC2O[C@](O)(CC(O)C(O)CCC(O)CC(O)CC(O)CC(=O)O[C@H]1C)CC(O)C2C(=O)O (stereo partly shown) [nystatin]	sensitive	sensitive
